# Patent US20060025449A1, “Use of N-substituted imino sugars for appetite suppression” (priority 2004, published 2006)
# System: lean control and obese mice
# Assay: Dietary intake in lean and obese mice (compound in diet or intraperitoneal injection)
# Format: in vivo, mouse
# Experimental: Dietary intake of mice on powdered diets was measured on a daily basis, by pre-weighing diet put into the feeding hoppers then weighing remaining diet daily. Diet which the mice had spilt on the floor of the cage, was carefully recovered by sieving and incorporated into the measurements. In order to facilitate measurement of dietary intake, to exclude possible effects of the bitter taste of imino sugar in the diet and also inhibitory effects on disaccharidases in the gastrointestinal tract, groups of control and obese mice five weeks old were given daily intraperitoneal injections of NB-DNJ at a dose equivalent to 2400 mg/kg/day. A further group of obese mice was given daily intraperitoneal injections for two weeks from 10 weeks old. Control mice for each group were injected with an equal volume of isotonic saline vehicle. After assessment of dietary intake over five weeks in controls and three weeks in the obese mice, a restricted diet of 3.2 g/day for controls and 4.0 g/day for the obese mice was provided to compare with the effect of intraperitoneal injection. This equated to a 30% reduction in dietary provision for both groups of mice. […] Platt et al., J Biol Chem 272, 19365-72. This hypothesis was tested by measuring dietary intake in both lean and obese mice fed on both powdered chow with or without imino sugar and with pelleted diet. To exclude any effects of the bitter taste of imino sugars and also as a means to bypass any disaccharidase inhibition in the gut, lean control and obese mice were given daily intraperitoneal injections of NB-DNJ for five and three weeks respectively. Also, a group of obese mice had NB-DNJ mini-pumps implanted and, after four weeks, when the pumps were empty, were then given intraperitoneal injections daily. This delivery route has the advantage that it allows easy assessment of dietary intake, as the mice can eat pelleted diet.
compound,measurement,setting,value
"CCCCN1C[C@H](O)[C@@H](O)[C@H](O)[C@H]1CO [NB-DNJ, N-butyldeoxynojirimycin]",reduction in food intake,"all groups of mice, pelleted or powdered diet, 2400 mg/kg/day equivalent",around 30%
same,eat less than age and sex-matched controls,"intraperitoneally injected mice, 2400 mg/kg/day equivalent",30%
same,ate less than untreated controls,lean and obese groups,up to one third less
